This note sets out measurements from PMC5597618, “Identification and characterization of the novel reversible and selective cathepsin X inhibitors” (Scientific Reports, 2017).

Where two headings read alike, the source gives them in different places.

Test [1] concerns the target T1, cathepsin X (Homo sapiens, UniProt Q9UBR2). As to the kind of experiment: Determination of relative inhibition of cathepsin X. Format: biochemical. Also on record: made in house; host or cells: Pichia pastoris. On the procedure:
(§1) Recombinant or native human cathepsins were used: recombinant cathepsin X and cathepsin S were expressed in Pichia pastoris, recombinant cathepsins B and L in E. coli, [43], native cathepsin H was isolated from human liver. Assay buffers for determining activities of cathepsins X and L consisted of 100 mM sodium acetate buffer, pH 5.5, for cathepsins H, S and B (endopeptidase activity) of 100 mM phosphate buffer pH 6.8, 6.5 and 6.0, respectively and for cathepsin B (exopeptidase activity) of 60 mM acetate buffer pH 5.0. Each assay buffer contained 0.01% Triton X-100 to prevent false positive inhibition due to aggregation of compounds[45], 5 mM cysteine, 1.5 mM EDTA and 0.1% PEG 8000. Enzymes were activated at 37 °C for 5 min before the assays.
Abz-FEK(Dnp)-OH was used as cathepsin X specific substrate in activity assays. 90 μL of activated cathepsin X (20 nM) was added to a black 96-well plate with 5 μL of substrate (3.25 μM final concentration) and 5 μL of the compound (50 μM final concentration). The reaction was monitored continuously at 420 nm ± 10 nm with excitation at 320 nm ± 20 nm and at 37 °C. Relative inhibition (%) was calculated with the equation (1 − v i/v 0) × 100, where v i is reaction velocity in the presence of the compound and v 0 is reaction velocity without the compound.

Test [2] addresses T1, cathepsin X. As to the kind of experiment: Determination of Ki values and inhibition mechanism against cathepsin X (Abz-FEK(Dnp)-OH substrate). Format: biochemical. Also on record: made in house; host or cells: Pichia pastoris. The settings on record: for Inhibition mechanism: ENZO. The protocol:
as §1
Ki was determined by measuring the initial rate of hydrolysis at three different substrate concentrations (Supplementary Table S2) in the presence of seven different compound concentrations (0, 20, 40, 60, 80, 100 and 200 μM). 90 μL of the activated cathepsin was added to a black 96-well plate with 5 μL of the substrate and 5 μL of the compound. Formation of the fluorescent degradation product was monitored continuously at 460 nm ± 10 nm with excitation at 380 nm ± 20 nm (for AMC substrates) and, as noted above for Abz substrates, at 37 °C. All measurements were performed twice and in duplicate. The resulting data were analyzed by non-linear regression using the software SigmaPlot®, Enzyme Kinetics Module™ 1.3 and were fitted to the equation v = v max [S]/([S] (1 + [I]/αK i ) + K m (1 + [I]/K i )) (first group of compounds). For Ki determination against cathepsin X for the compounds from the second group, progress curves in the absence and presence of each putative inhibitor were fitted to the reaction mechanism presented in Fig. 3b. In this case the resulting data as well as reactivation curves were fitted to the equation system presented in Fig. 3c using ENZO application. For calculation of kinetic parameters from reaction progress curves the fluorescence coefficient for conversion of arbitrary fluorescence units to concentration was first determined. The fluorescence coefficient was calculated as the slope from the plot of initial substrate concentration vs. height of the plateau of the progress curve after complete hydrolysis of increasing concentrations of substrate, using linear regression.
Supplementary Table S2. Substrates used for the various cathepsins and their concentrations […]
Enzyme Substrate Concentration (µM) Reference/Company cathepsin X Abz-FEK(Dnp)-OH 3.25, 6.5, 13 Puzer et al.3 cathepsin B - endopept. Z-RR-AMC 60, 180, 360 Bachem cathepsin B - exopept. Abz-GIVRAK(Dnp)-OH 1, 3, 6 Bachem cathepsin S Z-VVR-AMC 0.5, 1, 1.5 Biomol cathepsin L Z-FR-AMC 0.5, 1, 4 Bachem cathepsin H Z-R-AMC 20, 80, 160 Biomol […]

Where [3] appears, read: second group, 50 μM compound, 1 h preincubation, read-out: % inhibition (1 h preincubation).
[4] abbreviates: first group, SigmaPlot non-linear regression at 3 different substrate concentrations.
The mark [5] stands for this setting: screening at 50 μM compound, read-out: relative inhibition of cathepsin X.
Where [6] appears, read: second group, progress curve analysis with ENZO.

T1 sequence (Q9UBR2 62-303): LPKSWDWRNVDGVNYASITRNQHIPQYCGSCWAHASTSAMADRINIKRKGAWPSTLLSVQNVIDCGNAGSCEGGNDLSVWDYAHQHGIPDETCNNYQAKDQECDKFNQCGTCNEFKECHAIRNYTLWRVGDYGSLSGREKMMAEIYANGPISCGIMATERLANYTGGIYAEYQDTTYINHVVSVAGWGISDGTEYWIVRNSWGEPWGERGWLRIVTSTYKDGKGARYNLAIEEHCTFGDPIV

Usually inhibition stands for the change of the read-out against control, counted positive when it falls. Regarding `Cc1ccc(C(=O)CSc2n[nH]c(N)n2)cc1` [Compound 13, 2-((5-Amino-1H-1,2,4-triazol-3-yl)thio)-1-(p-tolyl)ethanone], the inhibition at 50 µM in test [1] (setting [3]) worked out at 22%.

In the case of `N#Cc1ccc(C(=O)CSc2n[nH]c(N)n2)cc1` [Compound 16, 4-(2-((5-Amino-1H-1,2,4-triazol-3-yl)thio)acetyl)benzonitrile], in test [1] (setting [3]), the inhibition at 50 µM was 15%.

Consider `Nc1nc(SCC(=O)c2ccc(Oc3ccccc3)cc2)n[nH]1` [Compound 9, 2-((5-Amino-1H-1,2,4-triazol-3-yl)thio)-1-(4-phenoxyphenyl)ethanone], for which the inhibition at 50 µM in test [1] (setting [3]) was determined as 27%.

`COc1ccccc1-n1cnnc1SCC(=O)c1ccc2c(c1)OCCO2` [Compound 24, 1-(2,3-Dihydrobenzo[b][1,4]dioxin-6-yl)-2-((4-(2-methoxyphenyl)-4H-1,2,4-triazol-3-yl)thio)ethan-1-one]: the inhibition at 50 µM in test [1] (setting [3]) came to 73%.

As to `COc1ccccc1C(=O)CSc1n[nH]c(N)n1` [Compound 25, 2-((5-Amino-1H-1,2,4-triazol-3-yl)thio)-1-(2-methoxyphenyl)ethan-1-one], in test [1] (setting [3]), the inhibition at 50 µM is 50%.

What is called Ki is a measure of affinity in units of concentration, obtained from inhibition or displacement. Lower therefore signals higher affinity. `O=C(NC1CC2C(=O)NCC(=O)N2C1)c1ccc2cccnc2n1` (stereo not drawn) [Compound 5] came in with an inhibitory constant (Ki) in test [2] (setting [4]) of 136 µM. Moreover, in test [1] (setting [5]), the inhibition at 50 µM fell in the range of 60 to 75%.

Take `O=C(CSc1nc[nH]n1)c1ccc2c(c1)OCCO2` [Compound 11, 2-((1H-1,2,4-triazol-3-yl)thio)-1-(2,3-dihydrobenzo[b][1,4]dioxin-6-yl) ethanone]: the inhibition at 50 µM in test [1] (setting [3]) is 72%.

Consider `Nc1cc(N)nc(SCC(=O)c2ccc3c(c2)OCCO3)n1` [Compound 19, 2-((4,6-Diaminopyrimidin-2-yl)thio)-1-(2,3-dihydrobenzo[b][1,4]dioxin-6-yl)ethan-1-one], for which, in test [1] (setting [3]), the inhibition at 50 µM worked out at 27%.

On to `COc1ccc(C(=O)C(C)Sc2nncn2C)cc1OC` (stereo not drawn) [Compound 18, 1-(3,4-Dimethoxyphenyl)-2-((4-methyl-4H-1,2,4-triazol-3-yl)thio)propan-1-one], for which the inhibition at 50 µM in test [1] (setting [3]) turned out to be 25%.

With `O=C(CSc1nncn1-c1ccccc1)c1ccc2c(c1)OCCO2` [Compound 23, 1-(2,3-Dihydrobenzo[b][1,4]dioxin-6-yl)-2-((4-phenyl-4H-1,2,4-triazol-3-yl)thio)ethan-1-one], the inhibition at 50 µM in test [1] (setting [3]) was determined as 72%.

Take `Cc1[nH]c2ccccc2c1C(=O)C(C)Sc1n[nH]c(N)n1` (stereo not drawn) [Compound 15, 2-((5-Amino-1H-1,2,4-triazol-3-yl)thio)-1-(2-methyl-1H-indol-3-yl)propan-1-one]: in test [1] (setting [3]), the inhibition at 50 µM amounted to 23%.

Consider `Nc1nc(SCC(=O)c2ccc3c(c2)OCO3)n[nH]1` [Compound 8, 2-((5-Amino-1H-1,2,4-triazol-3-yl)thio)-1-(benzo[d][1,3]dioxol-5-yl) ethanone], for which the inhibition at 50 µM in test [1] (setting [3]) came to 67%.

On to `Cc1[nH]c2ccccc2c1C(=O)CSc1nnc[nH]1` [Compound 6, 2-((4H-1,2,4-triazol-3-yl)thio)-1-(2-methyl-1H-indol-3-yl)ethanone], for which the inhibition at 50 µM in test [1] (setting [3]) was 44%.

On to `Nc1nc(SCC(=O)c2ccc(-c3ccccc3)cc2)n[nH]1` [Compound 10, 1-([1,1′-Biphenyl]-4-yl)-2-((5-amino-1H-1,2,4-triazol-3-yl)thio)ethanone], for which the inhibition at 50 µM in test [1] (setting [3]) came to 64%.

Take `O=C(CSc1nc(C2CC2)n[nH]1)c1ccc2c(c1)OCCO2` [Compound 17, 2-((3-Cyclopropyl-1H-1,2,4-triazol-5-yl)thio)-1-(2,3-dihydrobenzo[b][1,4]dioxin-6-yl)ethan-1-one]: in test [2] (second group), the Inhibition mechanism entry is listed as “competitive”. In addition, affinity in test [2] (setting [6]) was put at a Ki of 7.35 ± 0.28 µM. Besides, the results for the inhibition at 50 µM in test [1] (setting [5]) and in test [1] (setting [3]) were > 70% and 72%, respectively.

As to `N#Cc1c(NC(=O)c2cc(OCCN)ccc2Cl)sc2c1CCCC2` [Compound 3, 5-(2-Aminoethoxy)-2-chloro-N-(3-cyano-4,5,6,7-tetrahydrobenzo[b]thiophen-2-yl)benzamide], in test [2] (setting [4]), the Ki is 260 ± 31.9 µM. Moreover, the inhibition at 50 µM in test [1] (setting [5]) lay in the range of 60 to 75%.

`COc1ccc(C(=O)CSc2n[nH]c(N)n2)cc1F` [Compound 21, 2-((5-Amino-1H-1,2,4-triazol-3-yl)thio)-1-(3-fluoro-4-methoxyphenyl)ethan-1-one]: the inhibition at 50 µM in test [1] (setting [3]) stood at 39%.

For the compound `COc1cc2c(cc1OC)CN(C(=O)CSc1n[nH]c(N)n1)CC2` [Compound 7, 2-((5-Amino-1H-1,2,4-triazol-3-yl)thio)-1-(6,7-dimethoxy-3,4-dihydroisoquinolin-2(1 H)-yl)ethanone], the “relative inhibition of cathepsin X” value in test [1] (screening at 50 μM compound) is on record as “devoid of any inhibitory activity”. The inhibition at 50 µM in test [1] (setting [3]) is 0%.

For `O=C(CSc1nnc(N2CCCC2)n1C1CC1)c1ccc2c(c1)OCCO2` [Compound 14, 2-((4-Cyclopropyl-5-(pyrrolidin-1-yl)-4H-1,2,4-triazol-3-yl)thio)-1-(2,3-dihydrobenzo[b][1,4]dioxin-6-yl)ethanone], the Inhibition mechanism result in test [2] (second group) is recorded as “competitive”. The inhibitory constant (Ki) in test [2] (setting [6]) is 5.41 ± 0.19 µM. For the same compound, the inhibition at 50 µM in test [1] (setting [5]) was > 70%; in test [1] (setting [3]), 74%.

Compound `N#Cc1c(NC(=O)c2cc(OCCCN)ccc2Cl)sc2c1CCCC2` [Compound 4, 5-(3-Aminopropoxy)-2-chloro-N-(3-cyano-4,5,6,7-tetrahydrobenzo[b]thiophen-2-yl)benzamide] came in with an inhibition constant Ki in test [2] (setting [4]) of 230 ± 2.9 µM. Moreover, the inhibition at 50 µM in test [1] (setting [5]) lay within 60 to 75%.
